Values of other authors as cited in US20250186494A1, “CAR-T THERAPIES TARGETED VIA COVALENTLY BONDED ADAPTERS” (THE SCRIPPS RESEARCH INSTITUTE, priority 2023, published 2025).

Biological target: PSMA (Homo sapiens, UniProt Q04609)
Details: already known targeting moiety

PSMA, sequence (Q04609 whole entry): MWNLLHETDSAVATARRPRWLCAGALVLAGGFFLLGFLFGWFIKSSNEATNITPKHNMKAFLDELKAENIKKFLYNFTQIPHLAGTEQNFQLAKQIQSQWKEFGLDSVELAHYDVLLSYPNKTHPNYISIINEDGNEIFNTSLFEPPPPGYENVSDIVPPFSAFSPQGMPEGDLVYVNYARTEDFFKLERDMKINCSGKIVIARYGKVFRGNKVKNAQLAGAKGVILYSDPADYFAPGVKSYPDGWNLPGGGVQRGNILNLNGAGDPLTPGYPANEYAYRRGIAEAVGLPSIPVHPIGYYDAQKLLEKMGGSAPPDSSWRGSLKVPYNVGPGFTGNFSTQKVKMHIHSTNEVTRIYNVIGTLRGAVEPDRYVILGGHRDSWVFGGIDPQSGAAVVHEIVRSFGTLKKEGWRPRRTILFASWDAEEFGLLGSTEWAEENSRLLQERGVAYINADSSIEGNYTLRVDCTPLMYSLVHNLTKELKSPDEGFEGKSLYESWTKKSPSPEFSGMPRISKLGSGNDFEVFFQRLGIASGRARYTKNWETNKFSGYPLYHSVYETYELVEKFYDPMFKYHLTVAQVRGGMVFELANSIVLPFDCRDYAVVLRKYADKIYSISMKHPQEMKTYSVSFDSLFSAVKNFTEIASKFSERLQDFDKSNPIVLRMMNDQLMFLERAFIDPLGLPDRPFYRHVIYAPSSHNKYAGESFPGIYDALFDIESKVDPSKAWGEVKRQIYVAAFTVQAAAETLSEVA

affinity for PSMA: nM affinity
Compound: O=C(O)CCC(NC(=O)NC(CCC(=O)O)C(=O)O)C(=O)O (stereo not shown) [DUPA, 2-[3-(1,3-dicarboxypropyl)ureido]pentanedioic acid]
